Experimental data: patent US6562859B1, “Ureido derivatives of poly-4-amino-2-carboxy-1-methyl pyrrole compounds for inhibition of inflammation” (The United States of America as represented by the …, priority 1997, dated 2003)
One block for each molecule: values may come before it.

How the values were obtained:
CXCR4 chemokine receptor = molecular target: T1, CXCR4 chemokine receptor (Homo sapiens, UniProt P61073); test: Competition with 44716.111 mAb binding to CXCR4 on human monocytes (FACS); details: human monocytes pre-incubated 15 min at 4° C. with 125 nM SDF-1α or 200 μM NSC 651016
T1 construct: Human monocytes, which express the CXCR4 chemokine receptor; endogenous in cells; host or cells: human monocytes
Protocol: Competition assays were performed with the 44716.111 mouse monoclonal antibody (mAb), which binds to the extracellular domain of the CXCR4 chemokine receptor. Human monocytes, which express the CXCR4 chemokine receptor, were pre-incubated with either 125 nM of SDF-1α or 200 μM NSC 651016 for 15 min at 4° C. Control monocyte cells were placed at 4° C. for 15 min. The cells were then incubated with the 44716.111 mAb for an additional 30 min. The presence of the 44716.111 mAb was detected by incubating the cells with FITC-conjugated anti-murine antibody and subjecting the cells to FACS Analysis.

Murine spleen cells = test: Chemotaxis of non-adherent murine spleen cells in vitro; assay type: cell-based; details: 10 ng/ml RANTES alone; media alone = 1
Protocol: Murine spleen cells were “panned” on plastic to remove the adherent cells. The recovered cells were incubated for 30 minutes at 37° C. with one of the following: NSC 651015, NSC 651016, NSC 662162, and NSC 680651. […] In assays similarly performed using either the MIP-1α or the SDF-1α chemokine rather than RANTES, chemotactic inhibition was also observed in the presence of formula I compounds.

T1 sequence (P61073 whole entry): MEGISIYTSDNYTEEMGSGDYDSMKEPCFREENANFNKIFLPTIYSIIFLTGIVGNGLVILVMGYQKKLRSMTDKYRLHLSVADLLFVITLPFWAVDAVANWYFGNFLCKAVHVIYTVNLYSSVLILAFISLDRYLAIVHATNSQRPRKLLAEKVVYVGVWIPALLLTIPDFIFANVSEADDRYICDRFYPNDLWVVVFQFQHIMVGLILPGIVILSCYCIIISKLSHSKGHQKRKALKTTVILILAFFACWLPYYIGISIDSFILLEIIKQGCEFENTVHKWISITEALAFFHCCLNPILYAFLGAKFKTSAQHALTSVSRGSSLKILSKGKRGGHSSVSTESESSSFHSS

- 44716.111 antibody binding to the CXCR4 receptor (CXCR4 chemokine receptor): decrease in 44716.111 antibody binding
Molecule: SDF-1α

B1: RANTES: β-chemokine used as chemoattractant stimulus (protein, UniProt P13501 24-91, looked up)
C-C motif chemokine 5: SPYSSDTTPCCFAYIARPLPRAHIKEYFYTSGKCSNPAVVFVTRKNRQVCANPEKKWVREYINSLEMS
- chemotactic index (Murine spleen cells): 2.3
